Like-named read-outs stand apart in the source and are kept apart here. Marks after values point to notes of the source that are not given here.

Results on 8 compounds are retold here after patent publication US6949648B2, “Condensed pyrazole derivatives, process for producing the same and use thereof” (Takeda Pharmaceutical Company Limited, priority 2000, dated 2005).

In series [1] the test system is IFN-γ. The series is described as follows: Effect on cytokine production of mice sensitized by controlled-release ovalbumin: IFN-γ. The class given is in vivo, BALB/c mouse. Particulars: 30 mg/kg b.w. orally, 5 days a week during 9-day period, splenic cells incubated with OVA 3 days, ELISA; for inhibition in vivo at 30 mg/kg: Mus musculus, po, read-out: Suppression Rate (%) IFN-γ. How it is done:
(§1) Effect on Cytokine Production of Mice Sensitized by Controlled-Release Ovalbumin
(§2) An osmotic pump (Alza Co., USA) containing a solution (100 μL) containing 1.0 mg of ovalbumin (OVA; albumin chicken egg grade III, Sigma Chemical) was implanted in the back of a male BALB/c mouse (Charles River) of 8 weeks old under ether anesthesia, and the mouse is sensitized by the controlled-release ovalbumin. After 11 days from implantation of the pump, a sample of spleen was removed, and a splenic cell suspension was prepared by the use of the RPMI-1640 medium (Bio Whittaker Inc., USA) containing inactivated fetal bovine serum (10% V/V; Bio Whittaker Inc., USA), 2-mercaptoethanol (50 μM), and gentamicin (20 μg/ml). A sample compound (30 mg/kg b.w.) was suspended in 0.4 ml of methylcellulose (MC), and the suspension was orally administered, 5 days a week during the 9-day period from the initiation day of sensitization to the day before the day of blood sample collection (1 Group, n=10). The splenic cell suspension was adjusted to a concentration of 5.0×10^6 cells/ml, and the resulting suspension (100 μl) was pipetted onto a 96 well U-bottomed plate, each of the wells containing a solution (100 μl/well) of 400 μg/ml OVA, and the plate was incubated at 37° C. in a 5% carbon dioxide gas incubator for 3 days. The cultured media were centrifuged at 200×g for 5 minutes, and the supernatants were collected and the production of IL-4, IL-5 and IFN-γ in each of the supernatants was determined by the ELISA method [Mouse IL-4 Bulk Kit (PerSeptive Biosystems), Mouse IL-5 Bulk Kit (PerSeptive Biosystems), and Mouse IFN-γ Bulk Kit (PerSeptive Biosystems)].
On the technique in general: In an ELISA, binding on a coated surface is turned into a signal by an enzyme label.

Series [2] deals with OVA-specific IgE. Briefly: Effect on antibody production of ovalbumin-sensitized mice: IgE. The class given is in vivo, BALB/c mouse. The following applies: 30 mg/kg b.w. orally, 5 days a week during 9-day period, serum 11 days after first sensitization, ELISA; for inhibition in vivo at 30 mg/kg: Mus musculus, po, 264 h, read-out: Suppression Rate (%) IgE. How it is done:
(§3) Effect on Antibody Production of Mice Sensitized by Controlled-Release Ovalbumin
(§4) A male BALB/c mouse (Charles River) of 7 weeks old was sensitized by intraabdominal administration, twice at an interval of a week, of a mixture of 10 μg/mouse of ovalbumin (OVA; albumin chicken egg grade III; Sigma Chemical) and 1 mg of aluminum hydroxide hydrate gel suspension (Alum; LSL Co. LTD.). After 11 days from the first sensitization, blood was collected from beneath eye under ether anesthesia, and the amount of OVA-specific IgE, IgG1 (Th2 type) and IgG2a (Th1 type) antibodies in the serum were determined by the ELISA method. A sample compound (30 mg/kg b.w.) was suspended in 0.4 ml of methylcellulose (MC), and the suspension was orally administered, 5 days a week during the 9-day period from the initiation day of sensitization to the day before the day of blood sample collection (1 Group, n=8 to 10).

The test system of series [3] is IL-5. The series is described as follows: Effect on cytokine production of mice sensitized by controlled-release ovalbumin: IL-5. The series is classed as in vivo, BALB/c mouse. Particulars: 30 mg/kg b.w. orally, 5 days a week during 9-day period, splenic cells incubated with OVA 3 days, ELISA; for inhibition in vivo at 30 mg/kg: Mus musculus, po, read-out: Suppression Rate (%) IL-5. The procedure: as §1, §2

Series [4] deals with OVA-specific IgG2a (Th1 type). Briefly: Effect on antibody production of ovalbumin-sensitized mice: IgG2a. The series is classed as in vivo, BALB/c mouse. The following applies: 30 mg/kg b.w. orally, 5 days a week during 9-day period, serum 11 days after first sensitization, ELISA; for inhibition in vivo at 30 mg/kg: Mus musculus, po, 264 h, read-out: Suppression Rate (%) IgG2a. The procedure: as §3, §4

Series [5] concerns IL-4. Briefly: Effect on cytokine production of mice sensitized by controlled-release ovalbumin: IL-4. The series is classed as in vivo, BALB/c mouse. The following applies: 30 mg/kg b.w. orally, 5 days a week during 9-day period, splenic cells incubated with OVA 3 days, ELISA; for inhibition in vivo at 30 mg/kg: Mus musculus, po, read-out: Suppression Rate (%) IL-4. The procedure:
as §1, §2

Series [6] has as its system acetic acid induced rising and stretching. The series is described as follows: Analgesic activity, acetic acid rising method. The class given is in vivo, ICR-mice. Particulars: po, 20 min; 10 mg/kg orally, 30 minutes before 0.6% acetic acid i.p.; number of rising and stretching in 20 minutes; read-out: Repression rate (%) Dosage 10 mg/kg. The procedure: Analgesic Activity Acetic Acid Rising Method Male ICR-mice (5 weeks old, CLEA Japan) were used (1 group, n=10), and a sample was orally administered (0.2 mL/10 g, b.w.). After 30 minutes, 0.6% acetic acid solution was injected to mice intraperitoneally (0.1 mL/10 g, b.w.), and the mice were immediately transferred into an observation cage made of a transparent acrylic resin. The number of rising and stretching during the following period of 20 minutes was counted. The repression rate (%) was calculated by comparing the average numbers between the sample groups and the control groups.

For series [7], the system named is yeast-induced pyrexia. The series is described as follows: Antipyretic activity in yeast-induced pyrexia. The following applies: 10 mg/kg orally; maximum difference in body temperature vs control over 6 hours. The series is classed as in vivo, SD rats. How it is done: Antipyretic Activity in Yeast-Induced Pyrexia Antipyretic activity was determined using male SD origin male-rats (7 weeks old, CLEA Japan, 1 group: n=6), according to the method of winter et. al. (J. Pharmacol. Exp. Ther., vol. 138, p. 405, 1963). Before 16 hours from measurement of body temperature, a suspension of 15% yeast in saline was injected subcutaneously (10 mL/kg, b.w.) into the rats to induce fever, and simultaneously supply of food was terminated while water was made available all the time. Each of the rats was raised separately. After 16 hours from the yeast shot, a thermistor terminal was inserted at an about 4 cm depth into rectum every hour, and the body temperatures after 30 seconds were recorded. After 18 hours, rats developing fevers consistently were selected, and a sample was orally administered to the rats (5 mL/kg, b.w.), while to the control, only the solvent was administered. After the administration, body temperatures were measured every hour for a period of 6 hours, and the maximum difference in body temperature between the rats in the sample group and in the control group were determined as Δ (° C.).

Series [8] has as its system carrageenin edema of right hind limb plantar. The series is described as follows: Anti-inflammatory activity, carrageenin edema method. The following applies: po, 10 mg/kg orally. The class given is in vivo, SD-rats. The procedure:
Anti-Inflammatory Activity
Male SD-rats (6 weeks old, CLEA Japan) were used (1 group, n=6). The Carrageenin edema method was performed according to the method of Winter et. al., (Proc. Soc. Exp. Biol. Med., vol. 111, p. 544-547, 1962). After the volume of right hind limb plantar of the rat was determined, a sample was orally administered (1.0 mL, b.w.), and immediately water was orally administered in an amount of 5 mL/rat. Meanwhile, only the solvent of the sample was orally administered to rats in control. After 1 hour, a solution of 1% carrageenin in saline (0.05 mL) was injected into the right hind limb plantar subcutaneously to induce edema. After 2 and 3 hours later from the injection, volumes of the right hind limb plantar were determined. The repression rate (%) of the sample was calculated by comparing the difference of the volumes of the plantar before the carrageenin shot and 2 and 3 hours after the shot between the sample groups and the control groups.
In general terms: The carrageenan paw model is a standard test of acute inflammation.

The mark [9] stands for this setting: 2 hr after carrageenin injection, read-out: Repression rate (%) Dosage 10 mg/kg 2 hr later.
Where [10] appears, read: 3 hr after carrageenin injection, read-out: Repression rate (%) Dosage 10 mg/kg 3 hr later.

For orientation: melting point means the temperature, or range, at which the solid turns liquid. In turn, `CSc1ccc2[nH]c3c(c(C)nn3-c3ccccn3)c(=O)c2c1` [Example 1-50, 3-Methyl-6-(methylsulfanyl)-1-(2-pyridinyl)-1,9-dihydro-4H-pyrazolo[3,4-b]quinolin-4-one] yielded a melting point of 182 to 185 °C. Also, the inhibition in vivo at 30 mg/kg in [1] amounted to 11.1%. For the same compound, the inhibition in vivo at 30 mg/kg in series [2] turned out to be 22%. For the same compound, the inhibition in vivo at 30 mg/kg in series [3] came to 60.2%. Besides, the inhibition in vivo at 30 mg/kg in series [4] is 19.5%. The inhibition in vivo at 30 mg/kg in series [5] was determined as 45.5%.
Compound `O=c1c2cc(Cl)ccc2[nH]c2c1cnn2-c1ccccn1` [Example 2-161, 6-Chloro-1-(2-pyridinyl)-1,9-dihydro-4H-pyrazolo[3,4-b]quinolin-4-one] had a melting point of 297 to 298 °C. Moreover, in series [6], the inhibition in vivo at 10 mg/kg turned out to be 74%. Further, the “Δ (° C.) Dosage 10 mg/kg” value in series [7] is on record as 1.4** ° C. Besides, in [8] (setting [9]), the inhibition in vivo at 10 mg/kg came out at 33%. In series [8] (setting [10]), the inhibition in vivo at 10 mg/kg was 33%.
Consider `Cc1nn(-c2ccccn2)c2[nH]c3cc(F)c(Cl)cc3c(=O)c12` [Example 2-99, 6-Chloro-7-fluoro-3-methyl-1-(2-pyridinyl)-1,9-dihydro-4H-pyrazolo[3,4-b]quinolin-4-one], for which the melting point amounted to 284 °C. For the same compound, the inhibition in vivo at 10 mg/kg in [6] amounted to 39%. Moreover, the inhibition in vivo at 10 mg/kg in [8] (setting [9]) was 46%. Moreover, the inhibition in vivo at 10 mg/kg in series [8] (setting [10]) was determined as 41%.
The compound `Cc1nn(-c2ccccn2)c2nc3ccccc3c(N)c12.Cl` [Example 1-36, 3-Methyl-1-(2-pyridinyl)-1H-pyrazolo[3,4-b]quinolin-4-ylamine hydrochloride] displayed a melting point of 268 to 271 °C. Further, in series [1], the inhibition in vivo at 30 mg/kg is -131%. The inhibition in vivo at 30 mg/kg in series [2] stood at 64.2%. Besides, the inhibition in vivo at 30 mg/kg in [3] is 61.5%. Moreover, the inhibition in vivo at 30 mg/kg in series [4] came to 23.4%. For the same compound, in series [5], the inhibition in vivo at 30 mg/kg came to 99.8%.
Regarding `Cc1cccc2c(=O)c3c(C)nn(-c4ccccn4)c3[nH]c12` [Example 1-47, 3,8-Dimethyl-1-(2-pyridinyl)-1,9-dihydro-4H-pyrazolo[3,4-b]quinolin-4-one], the inhibition in vivo at 30 mg/kg in [1] is 31.8%; in [2], 4.9%; in [3] it was 61.1%; in series [4], -17.1%; in [5], 49.9%.
The corresponding values for `CCOc1cccc(-n2nc(C)c3c(Cl)c4c(C)cccc4nc32)n1` [Example 1-57, 4-Chloro-3,5-dimethyl-1-(6-ethoxy-2-pyridinyl)-1H-pyrazolo[3,4-b]quinoline] are 36.7%, 23.6%, 53.9%, -55.1% and 43.2%.
As for `CCOc1cccc(-n2nc(C)c3c(N)c4cccc(C)c4nc32)n1` [Example 1-60], in [1], the “Suppression Rate (%) IFN-γ” value was 23.4%. For the same compound, the “Suppression Rate (%) IgE” value in series [2] is recorded as 54.9** %. The “Suppression Rate (%) IL-5” value in series [3] stood at 59.3%. Also, the “Suppression Rate (%) IgG2a” value in [4] stood at 47.8%. Also, the “Suppression Rate (%) IL-4” value in series [5] was determined as 56.7%.
As for `COc1cccc(-n2nc(C)c3c(N)c4cccc(C)c4nc32)n1` [Example 1-59, 3,8-Dimethyl-1-(6-methoxy-2-pyridinyl)-1H-pyrazolo[3,4-b]quinolin-4-ylamine], the inhibition in vivo at 30 mg/kg is -124% in series [1]; 60.7% in series [2]; 27.8% in series [3]; 46.3% in series [4]; 66.5% in series [5].
